# Test results as given in US8461162B2, “Pyrazolo[1,5-a]pyrimidine derivatives” (Merck Sharp & Dohme Corp., priority 2007, dated 2013).
# Target: T1, recombinant MARK3 enzyme (Homo sapiens, UniProt P27448)
# T1 construct: purchased University of Dundee
# Test: MARK 3 Assay (HTRF, Cdc25C biotinylated peptide substrate)
# Assay type: biochemical
# Details: 10 μM ATP, 2 hours at 25° C.
# Description: MARK3 activity was assayed in vitro using a Cdc25C biotinylated peptide substrate (Cell Signalling Technologies). The phosphopeptide product was quantitated using a Homogenous Time-Resolved Fluorescence (HTRF) assay system (Park et al., 1999, Anal. Biochem. 269:94-104). The reaction mixture contained 50 mM HEPES/Tris-HCl, pH 7.4; 10 mM NaCl, 5 mM MgCl2, 0.2 mM NaVO4, 5 mM β-glycerol phosphate, 0.1% Tween-20, 2 mM dithiothreitol, 0.1% BSA, 10 μM ATP, 1 μM peptide substrate, and 10 nM recombinant MARK3 enzyme (University of Dundee) in a final volume of 12 μl. The buffer additionally contained protease inhibitor cocktail (Roche EDTA-free, 1 tab per 50 ml). The kinase reaction was incubated for 2 hours at 25° C., and then terminated with 3 μl Stop/Detection Buffer (50 mM HEPES, pH 7.0, 16.6 mM EDTA, 0.5M KF, 0.1% Tween-20, 0.1% BSA, 2 μg/ml SLX^ent 665 (CISBIO), and 2 μg/ml Eu^3+ cryptate label antibody (CISBIO)). The reaction was allowed to equilibrate overnight at 0° C., and relative fluorescent units were read on an HTRF enabled plate reader (e.g. TECAN GENios Pro).
# Inhibitor compounds were assayed in the reaction described above to determine compound IC50s. Aliquots of compound dissolved in DMSO were added to the reaction wells in a third-log dilution series covering a range of 1 nM to 10 μM. Relative phospho substrate formation, read as HTRF fluorescence units, was measured over the range of compound concentrations and a titration curve generated.
# T1 sequence (P27448 whole entry, species assumed): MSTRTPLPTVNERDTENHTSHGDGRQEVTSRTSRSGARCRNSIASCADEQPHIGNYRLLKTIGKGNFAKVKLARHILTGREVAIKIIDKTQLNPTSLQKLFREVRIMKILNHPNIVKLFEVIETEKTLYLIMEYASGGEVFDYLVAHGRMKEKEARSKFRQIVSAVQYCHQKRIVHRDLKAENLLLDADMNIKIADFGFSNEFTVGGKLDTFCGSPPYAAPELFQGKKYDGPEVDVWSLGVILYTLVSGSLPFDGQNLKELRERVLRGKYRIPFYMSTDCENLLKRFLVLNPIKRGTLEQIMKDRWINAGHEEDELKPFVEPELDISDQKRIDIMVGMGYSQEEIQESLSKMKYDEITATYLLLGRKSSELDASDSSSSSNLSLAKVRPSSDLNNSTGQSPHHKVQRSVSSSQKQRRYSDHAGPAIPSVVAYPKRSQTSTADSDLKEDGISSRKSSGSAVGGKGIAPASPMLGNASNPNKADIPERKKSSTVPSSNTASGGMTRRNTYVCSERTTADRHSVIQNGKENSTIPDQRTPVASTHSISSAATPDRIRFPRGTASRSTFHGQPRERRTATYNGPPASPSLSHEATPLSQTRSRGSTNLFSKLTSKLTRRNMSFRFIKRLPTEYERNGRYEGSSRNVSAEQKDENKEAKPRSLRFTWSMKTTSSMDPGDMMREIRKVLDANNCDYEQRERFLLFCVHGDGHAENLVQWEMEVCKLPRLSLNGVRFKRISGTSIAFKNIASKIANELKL
row,SMILES,IC50 [nM]
1,"Cn1cc(-c2cnc3c(-c4ccc(C(=O)N[C@@H]5CCCC[C@@H]5N)cc4)cnn3c2)cn1 (stereo in doubt) [Example 219, N-[2-aminocyclohexyl]-4-[6-(1-methyl-1H-pyrazol-4-yl)pyrazolo[1,5-a]pyrimidin-3-yl]benzamide]",127
2,"CC(C)[C@@H](NC(=O)c1cc(-c2cnn3cc(-c4ccc(NCC(C)(C)O)nc4)cnc23)cs1)C(F)(F)F [Example 49, 4-(6-{6-[(2-hydroxy-2-methylpropyl)amino]pyridin-3-yl}pyrazolo[1,5-a]pyrimidin-3-yl)-N-[(1R)-2-methyl-1-(trifluoromethyl)propyl]thiophene-2-carboxamide]",4
3,"O=C(NCC(F)(F)F)c1cc(-c2cnn3cc(-c4ccn(CCCN5CCC(F)(F)C5)c(=O)c4)cnc23)cs1 [Example 8, 4-(6-{1-[3-(3,3-difluoropyrrolidin-1-yl)propyl]-2-oxo-1,2-dihydropyridin-4-yl}pyrazolo[1,5-a]pyrimidin-3-yl)-N-(2,2,2-trifluoroethyl)thiophene-2-carboxamide]",158
4,"O=C(NCc1nccs1)c1cc(-c2cnn3cc(-c4cccnc4)cnc23)cs1 [Example 184, 4-(6-pyridin-3-ylpyrazolo[1,5-a]pyrimidin-3-yl)-N-(1,3-thiazol-2-ylmethyl)thiophene-2-carboxamide]",607

# Second part, the molecule after the results:
row,IC50 [nM],SMILES
1,35,"O=C(NCC(F)(F)F)c1cc(-c2cnn3cc(-c4ccc(N5CCOCC5)nc4)cnc23)cs1 [Example 50, 4-[6-(6-morpholin-4-ylpyridin-3-yl)pyrazolo[1,5-a]pyrimidin-3-yl]-N-(2,2,2-trifluoroethyl)thiophene-2-carboxamide]"
2,60,"Cn1cc(-c2cnc3c(-c4nc(C(=O)NCC(F)(F)F)sc4Cl)cnn3c2)cn1 [Example 205, 5-chloro-4-[6-(1-methyl-1H-pyrazol-4-yl)pyrazolo[1,5-a]pyrimidin-3-yl]-N-(2,2,2-trifluoroethyl)-1,3-thiazole-2-carboxamide]"
3,< 0.3,"Cc1sc(C(=O)N[C@@H]2[C@H](N)CCCC2(F)F)cc1-c1cnn2cc(-c3cnn(C)c3)cnc12 [Example 202, N-[(1R,6R)-6-amino-2,2-difluorocyclohexyl]-5-methyl-4-[6-(1-methyl-1H-pyrazol-4-yl)pyrazolo[1,5-a]pyrimidin-3-yl]thiophene-2-]"
